Measured values from publication PMC9598883, “An Optimized Workflow for the Discovery of New Antimicrobial Compounds Targeting Bacterial RNA Polymerase Complex Formation” (Antibiotics, 2022).
Converted amounts (≈) assume the structure as drawn.

Columns and labels:
[1] = test system: E. coli DH10T1R; experiment: MIC assay, E. coli; assay type: cell-based, Escherichia coli; details: in the presence of PMBN (2 μg/mL)
Protocol: (§1) Growth inhibition tests and minimum inhibitory concentration (MIC) assay on the gram-positive B. subtilis WB800N strain (nprE aprE epr bpr mpr::ble nprB::bsr Δvpr wprA::hyg cm::neo; NeoR) (MoBiTec GmbH, Lotzestraße, Göttingen, Germany) and on the gram-negative nonpathogenic E. coli DH10 T1R strain (F-mcrA Δ(mrr-hsdRMS-mcrBC) Φ80lacZ ΔM15 ΔlacX74 recA1 endA1 araD139Δ(ara, leu)7697 galU galK λ-rpsL nupG) (Invitrogen, Waltham, MA, USA) were performed as described in Sartini et al..
(§2) Antimicrobial activity was determined by means of the minimum inhibitory concentration (MIC) assay, according to the Clinical & Laboratory Standards Institute (CLSI) guidelines described in ([37]). The assays were performed in 96-well microplates in 20% MH broth in PBS. A 2.5 × 10^5 CFU/mL medium-phase bacterial suspension in 20% MH broth was used and the microplates were incubated at 37 °C for 24 h. […] The results were derived from at least three independent experiments conducted in duplicate.

[2] = target: T1, β′–σ^70 PPI (GST-β′ aa 1–334 / His-tagged σ^70) (Escherichia coli, UniProt P0A8T7); experiment: Competitive ELISA of β′–σ^70 interaction; assay type: binding, E. coli; details: for IC50: read-out: Binding Inhibition IC50 ± SD; for inhibition at 100 µM: fixed concentration of 100 μM, read-out: β′–σ70 binding inhibition, ELISA 100 μM (percentage inhibition ± SD)
T1 construct: 50 nM GST-β′ (aa 1–334); made in house; host or cells: bacterial expression (pET28-b / pGEX4-T3 vectors)
T1 sequence (P0A8T7 1-334): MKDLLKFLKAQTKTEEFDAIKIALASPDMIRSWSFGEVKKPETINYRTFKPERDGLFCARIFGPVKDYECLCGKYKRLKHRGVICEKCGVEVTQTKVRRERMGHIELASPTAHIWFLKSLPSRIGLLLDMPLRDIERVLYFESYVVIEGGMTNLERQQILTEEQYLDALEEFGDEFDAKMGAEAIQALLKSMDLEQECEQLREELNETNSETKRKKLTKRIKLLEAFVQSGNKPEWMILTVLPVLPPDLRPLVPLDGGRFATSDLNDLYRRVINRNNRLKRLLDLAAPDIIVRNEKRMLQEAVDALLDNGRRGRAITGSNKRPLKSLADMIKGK
Protocol: In this in vitro set-up, individual candidate molecules (each at 100 µM concentration) were incubated with β’ before the addition of σ^70 and assessment of interaction reconstitution with an antibody directed against the σ^70 fusion tag. Eighteen of the 28 yBRET-positive compounds were thus confirmed as true inhibitors of the β’–σ^70 PPI (i.e., they inhibited the interaction by at least 50%); their structures and percentage inhibition values are reported in Table S1.
The production of recombinant proteins, the standard ELISA, and the “reverse” ELISA were performed following the protocols described in Sartini et al.. The full-length sequence coding for E. coli σ^70 was cloned into a modified pET28-b in-frame with an N-terminal 6xHis tag-sequence and was expressed in LB medium for 3 h at 30 °C following addition of 1 mM isopropyl-β-D-thiogalactopyranoside (IPTG).
The RNAP β’ 1–334 aa. coding sequence was cloned into a modified pGEX4-T3 expression vector (Amersham Biosciences, Amersham, Buckinghamshire, England) and was expressed for 24 h at 20 °C under auto-induction conditions (Auto Induction Medium, AIM-LB broth base; ForMedium™, Swaffham, Norfolk, England). Due to the failure of affinity purification on a glutathione-Sepharose column, the unfractionated whole cell supernatant was used directly as a GST-tagged source for ELISA.
For the standard ELISA, His-tagged- σ^70 was diluted to 250 nM with PBS and 100 μL of the resulting solution was added to the wells of SpectraPlate-96 HB microtitre plates (PerkinElmer, Waltham, MA, USA). After an overnight incubation at 4 °C, the wells were washed with PBS and blocked at room temperature for 2 h with 400 μL of 1% (w/v) BSA dissolved in PBS. Subsequently, 100 μL of supernatant diluted in PBS containing 50 nM GST-β′ (aa 1–334) was incubated for 10 min at 37 °C with 2.5 μL of each compound dissolved in DMSO at different concentrations (or with 2.5 μL of DMSO). The addition first of the polyclonal rabbit anti-GST primary antibody (1:2000 in PBS) (Abcam, Cambridge, Cambridgeshire, England) and after incubation, of the horseradish peroxidase-conjugated goat anti-rabbit secondary antibody diluted 1:20,000 in PBS (Invitrogen™ by Life Technologies™, Carlsbad, CA, USA) allowed the detection of the interaction using the substrate for 2,2’-Azino-bis (3-Ethylbenzthiazoline-6-Sulphonic Acid) peroxidase (ABTS; SeraCare Life Sciences, Milford, MA, USA). The signal resulting from the oxidation of ABTS was determined by measuring the absorbance at 415 nm with a microplate reader (iMark™ Microplate Absorbance Reader; Bio-Rad, Hercules, CA, USA).

[3] = test system: B. subtilis WB800N; experiment: MIC assay, B. subtilis; assay type: cell-based, Bacillus subtilis; details: for MIC: Bacillus subtilis, WB800N
Protocol: as §1, §2

[4] = test system: B. subtilis (WB800N strain); experiment: Bacterial growth inhibition assay, B. subtilis; assay type: cell-based, Bacillus subtilis; details: for inhibition at 100 µM: Bacillus subtilis, 8 h, read-out: Growth Inhibition at 100 μM (8 h) B. subtilis
Text: (§3) To avoid the characterization of hit compounds lacking antibacterial activity, we subsequently tested the ability of the 18 ELISA-validated compounds to inhibit bacterial growth, using the previously identified indol-3-yl-urea derivative 4 as a reference. Two nonpathogenic bacteria were employed for this assay: the gram-positive B. subtilis (WB800N strain) and the gram-negative E. coli (DH10T1R strain). […] The remaining twelve compounds might have been unable to cross the bacterial membrane or were modified and/or extruded from the cell. […] This additional assay, which was conducted on a wild-type (W303) rather than on the hyperpermeable Δerg6 strain, is not part of our streamlined antibiotic discovery workflow and was only aimed at verifying the cytotoxicity prediction reliability of yBRET.
as §1
(§4) For growth inhibition assays, bacteria were grown to exponential phase (OD600 = 0.5–0.6) and then diluted 100-fold with LB. PMBN (2 μg/mL) for E. coli was added at this stage. Yeast strain W303-1A (leu2-3,112 trp1-1 can1-100 ura3-1 ade2-1 his3-11,15) was grown at 30 °C in YPD to an OD600 of 0.5. The growth of the bacterial (or yeast) cells was monitored for 8 h in the presence of the candidate compounds dissolved in DMSO (final concentration of 5%) or an equivalent amount of DMSO as a negative control (“vehicle”). Growth inhibition assays were conducted in triplicate in 96-well plates (Microtest Plate 96 Well, F, flat base, Sarstedt, Nümbrecht, North Rhine-Westphalia, Germany) by monitoring cell growth (OD600) every 30 min with a microplate reader (TriStar^2 LB 942; Berthold Technologies, Bad Wildbad, Baden-Württemberg, Germany) for bacteria and every 1 h for yeast.

[5] = test system: E. coli (DH10T1R strain); experiment: Bacterial growth inhibition assay, E. coli; assay type: cell-based, Escherichia coli; details: for inhibition at 100 µM: 8 h, in the presence of PMBN (2 μg/mL)
Text: as §3, §1, §4

[6] = test system: Saccharomyces cerevisiae (W303); experiment: Yeast growth inhibition assay; assay type: cell-based; details: wild-type W303
Text: as §3, §4

[7] = target: T2, E. coli RNAPc with recombinant σ^70 (holoenzyme) (Escherichia coli, UniProt P0A8T7); experiment: Fluorescence-detected single-round in vitro transcription assay; assay type: biochemical; details: fluorescence-based assay
T2 construct: purchased New England BioLabs
T2 sequence (P0A8T7 whole entry): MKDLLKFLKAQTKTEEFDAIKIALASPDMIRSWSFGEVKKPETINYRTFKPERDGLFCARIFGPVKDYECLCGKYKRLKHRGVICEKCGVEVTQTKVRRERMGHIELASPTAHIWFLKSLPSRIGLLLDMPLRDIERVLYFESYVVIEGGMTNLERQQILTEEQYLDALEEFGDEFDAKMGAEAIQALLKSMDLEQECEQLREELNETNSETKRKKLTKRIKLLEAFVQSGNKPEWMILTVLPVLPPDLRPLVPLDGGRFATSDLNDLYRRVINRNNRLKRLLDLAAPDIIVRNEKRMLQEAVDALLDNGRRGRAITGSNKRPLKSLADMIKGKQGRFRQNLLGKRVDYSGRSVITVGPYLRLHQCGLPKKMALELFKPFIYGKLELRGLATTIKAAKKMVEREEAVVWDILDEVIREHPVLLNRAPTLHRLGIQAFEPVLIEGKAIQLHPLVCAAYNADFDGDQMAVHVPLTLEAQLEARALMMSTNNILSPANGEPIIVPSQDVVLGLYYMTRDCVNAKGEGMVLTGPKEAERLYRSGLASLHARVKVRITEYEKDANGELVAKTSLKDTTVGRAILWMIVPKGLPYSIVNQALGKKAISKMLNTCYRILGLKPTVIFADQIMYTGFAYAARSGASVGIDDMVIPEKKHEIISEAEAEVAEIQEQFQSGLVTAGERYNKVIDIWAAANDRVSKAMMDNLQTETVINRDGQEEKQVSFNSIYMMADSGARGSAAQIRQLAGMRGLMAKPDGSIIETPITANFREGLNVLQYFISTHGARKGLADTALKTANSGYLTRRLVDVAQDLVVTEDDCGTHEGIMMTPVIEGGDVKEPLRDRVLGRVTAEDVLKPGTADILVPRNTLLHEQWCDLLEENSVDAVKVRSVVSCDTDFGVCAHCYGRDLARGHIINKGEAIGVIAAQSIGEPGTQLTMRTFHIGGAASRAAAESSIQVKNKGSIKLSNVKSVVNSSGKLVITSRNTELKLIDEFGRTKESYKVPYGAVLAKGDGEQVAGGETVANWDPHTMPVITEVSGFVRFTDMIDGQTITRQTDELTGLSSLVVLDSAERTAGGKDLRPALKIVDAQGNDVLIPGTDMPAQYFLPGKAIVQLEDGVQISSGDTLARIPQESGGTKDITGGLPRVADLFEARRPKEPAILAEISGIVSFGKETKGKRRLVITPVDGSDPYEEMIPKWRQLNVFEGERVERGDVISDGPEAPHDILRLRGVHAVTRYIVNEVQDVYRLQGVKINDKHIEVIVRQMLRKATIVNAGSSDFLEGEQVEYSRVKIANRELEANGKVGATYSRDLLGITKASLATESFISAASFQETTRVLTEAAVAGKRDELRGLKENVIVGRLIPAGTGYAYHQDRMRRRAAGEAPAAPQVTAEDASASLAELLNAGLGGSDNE
T2 sequence (P0A8V2 whole entry partner): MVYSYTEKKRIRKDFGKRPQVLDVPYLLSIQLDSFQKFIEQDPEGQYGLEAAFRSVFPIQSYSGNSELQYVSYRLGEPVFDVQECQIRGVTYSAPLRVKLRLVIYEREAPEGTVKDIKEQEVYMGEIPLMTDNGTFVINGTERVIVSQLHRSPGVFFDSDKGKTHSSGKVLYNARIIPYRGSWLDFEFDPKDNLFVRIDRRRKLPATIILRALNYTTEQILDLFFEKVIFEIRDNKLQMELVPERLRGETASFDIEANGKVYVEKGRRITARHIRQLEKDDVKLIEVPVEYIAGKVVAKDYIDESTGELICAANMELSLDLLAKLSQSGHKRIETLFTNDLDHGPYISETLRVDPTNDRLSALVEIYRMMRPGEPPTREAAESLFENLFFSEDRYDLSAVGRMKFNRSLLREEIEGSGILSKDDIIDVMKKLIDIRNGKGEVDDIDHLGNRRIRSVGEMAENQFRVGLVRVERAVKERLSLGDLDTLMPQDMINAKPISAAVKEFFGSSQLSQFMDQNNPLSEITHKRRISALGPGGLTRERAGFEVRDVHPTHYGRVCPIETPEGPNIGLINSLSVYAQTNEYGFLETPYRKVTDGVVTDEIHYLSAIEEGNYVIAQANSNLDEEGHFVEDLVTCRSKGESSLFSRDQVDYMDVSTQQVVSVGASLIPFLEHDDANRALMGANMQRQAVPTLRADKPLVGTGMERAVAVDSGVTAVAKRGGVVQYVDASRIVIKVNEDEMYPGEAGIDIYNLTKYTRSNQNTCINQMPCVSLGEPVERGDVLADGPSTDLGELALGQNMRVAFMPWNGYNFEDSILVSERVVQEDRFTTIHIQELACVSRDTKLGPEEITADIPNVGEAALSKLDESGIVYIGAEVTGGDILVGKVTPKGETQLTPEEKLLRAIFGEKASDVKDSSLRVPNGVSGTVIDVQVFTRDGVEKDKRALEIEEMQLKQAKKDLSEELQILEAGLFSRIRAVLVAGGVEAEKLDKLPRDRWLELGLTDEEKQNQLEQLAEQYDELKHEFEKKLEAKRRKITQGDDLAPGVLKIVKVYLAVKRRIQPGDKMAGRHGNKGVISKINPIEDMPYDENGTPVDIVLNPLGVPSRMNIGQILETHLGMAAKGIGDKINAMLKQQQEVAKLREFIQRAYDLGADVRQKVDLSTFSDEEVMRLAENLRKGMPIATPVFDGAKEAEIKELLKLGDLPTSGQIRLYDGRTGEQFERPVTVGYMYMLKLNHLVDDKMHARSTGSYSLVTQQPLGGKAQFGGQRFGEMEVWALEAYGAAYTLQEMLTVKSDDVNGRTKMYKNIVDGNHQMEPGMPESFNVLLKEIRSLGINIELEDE
T2 sequence (P0A7Z4 whole entry partner): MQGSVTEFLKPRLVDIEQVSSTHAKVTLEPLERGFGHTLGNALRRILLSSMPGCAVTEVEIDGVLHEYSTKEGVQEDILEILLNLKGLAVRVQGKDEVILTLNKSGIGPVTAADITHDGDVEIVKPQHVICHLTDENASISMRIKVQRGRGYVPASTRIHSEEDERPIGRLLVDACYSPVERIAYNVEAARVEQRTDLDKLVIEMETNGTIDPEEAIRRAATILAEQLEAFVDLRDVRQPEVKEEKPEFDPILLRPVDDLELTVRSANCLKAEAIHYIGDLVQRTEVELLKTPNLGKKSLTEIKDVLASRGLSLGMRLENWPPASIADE
T2 sequence (P0A800 whole entry partner): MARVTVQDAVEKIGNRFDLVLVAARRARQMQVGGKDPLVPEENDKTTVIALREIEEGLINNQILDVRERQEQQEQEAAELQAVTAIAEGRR
Protocol: A single-round transcription assay was first performed at a fixed, 100 µM concentration.
A fluorescence-detected RNAP inhibition assay with the profluorescent substrate γ-[2′(2-benzothiazoyl)-6′-hydroxybenzothiazole)-ATP (γ-BBT-ATP, Jena Bioscience, Jena, Thuringia, Germany) was performed to verify the ability of the selected compounds to inhibit the specific transcription activity of bacterial RNA polymerase, using E. coli RNAPc (New England BioLabs, Ipswich, MA, USA) and recombinant His-tagged-σ^70 for holoenzyme reconstitution.
Two nM of a circular DNA template (pDSP) [38] were then added to a final volume of 7 µL and the resulting reaction mixture was incubated at 37 °C for 15 min. The pDSP template is a 6135 bp vector harboring two identical λpR promoters upstream of engineered, cytosine-lacking (C-less) DNA regions. When CTP is omitted from the reaction mixture, transcription reinitiation is prevented, and this allows for the single-round transcription of 24 nt and 70 nt long RNAs. […]
Ten µL of the reaction was transferred to a black 384-well plate (PE384fw_ProxiPlate) and fluorescence emission was read with Spark 10M, Tecan (Männedorf, canton of Zürich, Switzerland) (excitation wavelength 422 nm; emission wavelength 590 nm).

[8] = test system: β′ subunit (RNAP); parameters: method as in PMID 26764017, PMID 23751807; details: cited from earlier work

SMILES	MIC E. coli [1]	IC50 ([2]; dose–response ELISA)	inhibition at 100 µM [2]	MIC B. subtilis [3]	MIC [3]	inhibition at 100 µM [4]	Duration of antibacterial activity, E. coli ([5]; 50 µM)	E. coli growth inhibition over time ([5]; 50 µM)	inhibition at 10 µM ([5]; Escherichia coli, 10 µM, 8 h observation, with PMBN, read-out: E. coli growth inhibition at lowest concentration)	inhibition at 100 µM ([5]; Escherichia coli)	Growth Inhibition at 100 μM (8 h) S. cerevisiae [6]	IC50 [7]	Fold less potent than reference compound 4 (binding inhibition IC50) ([2]; dose–response ELISA)	B. subtilis growth inhibition over time ([4]; 50 µM)	Duration of antibacterial activity, B. subtilis ([4]; 50 µM)	B. subtilis growth inhibition over time ([4]; only at 100 µM)	Concentration interfering with in vitro transcription initiation [8]	B. subtilis growth inhibition ([4]; concentrations ≤ 100 µM)	E. coli growth inhibition ([5]; concentrations ≤ 100 µM)
N#Cc1cc2cnccc2c2[nH]c3ncc(F)cc3c12 [Compound 7]	0.78 µM	8.56 ± 1.82 µM	86 ± 9%	did not inhibit B. subtilis growth	> 100 µM	13%	4 h	almost completely inhibited	38%	66%	7%								
O=C(CSc1nc2ccccc2[nH]1)c1ccc2[nH]c3ncc(Cl)cc3c2c1 [Compound 19]	>100 µM	40 ± 4.2 µM	94 ± 1%		100 µM (≈ 39.3 µg/mL)	37%				0%	0%	25.7 ± 1.85 µM	5 fold	almost completely inhibited	4 h	significantly inhibited			
COc1cc(OC)c2c(-c3ccc(Cl)cc3)c[nH]c2c1C(=O)NNC(=O)c1c(OC)cc(OC)c2c(-c3ccc(Cl)cc3)c[nH]c12 [GKL003]																	nanomolar concentrations		
COc1ccc(-c2ccc(-c3oc4cc(OC(C)=O)ccc4c3OC(C)=O)cc2)cc1OC [Compound 9]	>100 µM	13.9 ± 1.86 µM	100%		> 100 µM	24%				24%	0%	71 ± 2.46 µM						failed to exert any appreciable inhibitory activity	failed to exert any appreciable inhibitory activity
